Structures can show the parent of a compound that is named as a salt.
Target: 5-HT2A (Homo sapiens, UniProt P28223)
Assay: Radioligand binding assay, serotonin 5-HT2A
Conditions: 5-HT2A radioligand binding
Procedure: Two arylpiperazine derivatives of Formula (I) were tested in the in vitro pharmacological assays to evaluate their activities for dopamine D2 and D4, and serotonin 5-HT1A, 5-HT2A, 5-HT2B, 5-HT6 and 5-HT7 receptors.
Methods employed to evaluate the test compounds A and B in radioligand binding assays were adopted from the scientific literature references as shown in Table 1 to maximize reliability and reproducibility. Reference standards were run as an integral part of each assay to ensure the validity of the results obtained.
Literature References in Table 1: • 1. Gundlach, A. L., et al., Life Sciences 1984, 35:1981-1986. • 2. Hoyer, D., et al, Eur J Pharmacol, 1985, 118:13-23 • 3. Hall, D. a., et al, Brit J Pharmacol, 1997, 121:731-736. • 4. Carpenter, J. W., et al, (2002) Configuring radioligand receptor binding assays for HTS using scintillation proximity assay technology. Methods in Molecular Biology 190 High Throughput Screening: Methods and Protocols • [www.ncgc.nihgov/guidance/manualtoc.html] • 5. Van Tol, et al, nature 1992, 358:149-152. • 6. Bonhaus, D. W., et al, Brit J Pharmacol, 1995, 115:622-628. • 7. Monsma, F. J., et al, Mol Pharmacol, 1993, 43:320-327. • 8. Shen, Y. et al, J. Biol Chem, 1993, 268:18200-18204. • 9. Adham, N., et al, J Pharmacol Exp Ther, 1998, 287:508-514.

5-HT2A, sequence (P28223 whole entry): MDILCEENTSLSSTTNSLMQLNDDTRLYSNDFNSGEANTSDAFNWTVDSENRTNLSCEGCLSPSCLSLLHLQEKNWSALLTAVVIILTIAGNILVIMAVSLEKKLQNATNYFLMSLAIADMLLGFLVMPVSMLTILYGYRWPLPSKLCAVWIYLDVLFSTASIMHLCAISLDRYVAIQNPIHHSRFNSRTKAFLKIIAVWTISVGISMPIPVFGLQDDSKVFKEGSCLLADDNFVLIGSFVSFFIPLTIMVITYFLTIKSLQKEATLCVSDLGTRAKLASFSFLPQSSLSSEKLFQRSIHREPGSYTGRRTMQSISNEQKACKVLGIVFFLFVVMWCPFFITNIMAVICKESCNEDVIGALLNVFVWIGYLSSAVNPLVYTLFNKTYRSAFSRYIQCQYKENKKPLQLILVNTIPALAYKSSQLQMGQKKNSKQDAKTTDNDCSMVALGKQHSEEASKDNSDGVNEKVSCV

## O=C1COc2ccc(OCCCCN3CCN(c4cccc(Cl)c4Cl)CC3)cc2N1 [Compound B, 6-(4-(4-(2,3-dichlorophenyl)piperazin-1-yl)butoxy)-2H-benzo[b][1,4]oxazin-3(4H)-one hydrochloride]
  Ki: 2.5 nM
